According to patent US7510836B2, “Alpha arteether resistance domain” (priority 2003, dated 2009):
Converted amounts (≈) assume the structure as drawn.

How the values were obtained:
E. coli CA8000 = assay: Minimum inhibitory concentration (cross resistance); type: cell-based; conditions: Escherichia coli; strain CA8000
Text: (§1) The minimum inhibitory concentrations (MIC) of the quinolone and fluoroquinolone antibiotics were quantified for different strains and compared among each other. The differential response indicate the measure of resistance and sensitivity. Higher MIC indicate more resistance.

E. coli DH5a = assay: as above; type: cell-based; conditions: Escherichia coli; strain DH5a
Text: as §1

E. coli ET8000 [1] = assay: as above; type: cell-based; conditions: Escherichia coli; strain ET8000
Text: as §1

E. coli NK5819 [2] = assay: as above; type: cell-based; conditions: Escherichia coli; strain NK5819
Text: as §1

E. coli mutant CA80010 = assay: as above; type: cell-based; conditions: Escherichia coli, read-out: minimum inhibitory concentration (MIC)
Text: (§2) In order to develop an arteether resistant mutants from an arteether sensitive strains a reverse strategy was applied. Quinoline/fluoroquinolone (Q/FQs) resistant strains were developed spontaneously i.e. screening overnight log phase culture of the Quinolone/fluoroquinolone sensitive i.e. arteether resistant strain (E coli CA 8000) on the poison agar plate of the Q/FQs. The Q/FQ resistant mutants which appeared on the poison agar plates were first purified through single colony purification and then checked for their arteether sensitivity. These arteether sensitive mutants on the contrary when checked for their Q/Fqs resistance they show different level of Q/FQs resistance.
as §1

E. coli mutant CA80012 = assay: as above; type: cell-based; conditions: Escherichia coli, read-out: minimum inhibitory concentration (MIC)
Text: as §2, §1

E. coli mutant CA8001 = assay: as above; type: cell-based; conditions: Escherichia coli; strain CA8001
Text: as §2, §1

E. coli mutant CA8002 = assay: as above; type: cell-based; conditions: Escherichia coli; strain CA8002
Text: as §2, §1

E. coli mutant CA8003 = assay: as above; type: cell-based; conditions: Escherichia coli; strain CA8003
Text: as §2, §1

E. coli mutant CA8005 = assay: as above; type: cell-based; conditions: Escherichia coli; strain CA8005
Text: as §2, §1

E. coli mutant CA8006 = assay: as above; type: cell-based; conditions: Escherichia coli; strain CA8006
Text: as §2, §1

E. coli mutant CA8007 = assay: as above; type: cell-based; conditions: Escherichia coli; strain CA8007
Text: as §2, §1

E. coli mutant CA8009 = assay: as above; type: cell-based; conditions: Escherichia coli; strain CA8009
Text: as §2, §1

E. coli CA8012 = assay: Phenotype of strain (resistance or sensitivity); type: cell-based, Escherichia coli; parameters: key: R: resistance; S: sensitivity; conditions: gyrA GGT-GAT(242), Gly-Asp 81
Text: as §2
(§3) The strains of E coli of the investigation, their phenotypes in terms of a-arteether (resistance or sensitivity, superscript R or S) or antibiotic resistance or sensitivity, change in nucleotide position of the gyrase A gene leading to the phenotype, corresponding amino acid change in the protein and the position of amino acid change are being described. Always the phenotype a-arteether resistance is accompanied with quinolone or fluoroquinolone sensitivity and vice versa.

[3] = system: E. coli mutant strain Rev 4; assay: Phenotype of revertant (resistance or sensitivity); type: cell-based, Escherichia coli; parameters: key: R: resistance; S: sensitivity; conditions: gyrA GAT-GGT(242), Asp-Gly 81
Text: as §3
(§4) The commercially available strain E. coli DH5[…] (Stratagene, USA) is sensitive to […]-arteether but resistant to quinolone/fluoroquinolone due to a mutation at 87th aminoacid position of the gyr A protein (Aspartic acid of wild type is changed to Aspargine) with corresponding change in the codon GAC to AAC. This strain was used to screen […]-arteether resistant mutations. The observation was startling as the […]-arteether resistant mutants are the exact reversion at the 87th position of the aminoacid of gyrase A subunit i.e. Aspargine changed to aspartic acid, with corresponding change in the codon AAC to GAC.

[4] = system: E. coli mutant strain Rev 5; assay: Phenotype of revertant (resistance or sensitivity); type: cell-based, Escherichia coli; parameters: key: R: resistance; S: sensitivity; conditions: gyrA GAT-GGT(242), Asp-Gly 81
Text: as §3, §4

[5] = system: E. coli mutant strain Rev 6; assay: Phenotype of revertant (resistance or sensitivity); type: cell-based, Escherichia coli; parameters: key: R: resistance; S: sensitivity; conditions: gyrA GAT-GGT(242), Asp-Gly 81
Text: as §3, §4

[6] = system: E. coli mutant strain Rev. 1; assay: Phenotype of revertant (resistance or sensitivity); type: cell-based, Escherichia coli; parameters: key: R: resistance; S: sensitivity; conditions: gyrA GAT-GGT(242), Asp-Gly 81
Text: as §3, §4

[7] = system: E. coli mutant strain Rev. 2; assay: Phenotype of revertant (resistance or sensitivity); type: cell-based, Escherichia coli; parameters: key: R: resistance; S: sensitivity; conditions: gyrA GAT-GGT(242), Asp-Gly 81
Text: as §3, §4

[8] = system: E. coli mutant strain Rev. 3; assay: Phenotype of revertant (resistance or sensitivity); type: cell-based, Escherichia coli; parameters: key: R: resistance; S: sensitivity; conditions: gyrA GAT-GGT(242), Asp-Gly 81
Text: as §3, §4

E. coli DH5α = assay: Phenotype of strain (resistance or sensitivity); type: cell-based, Escherichia coli; parameters: key to Phenotype: R: resistance; S: sensitivity
Procedure: As a result of this mutation, the said strain is also resistant to a drug called nalidixic acid.
(§5) To ascertain the involvement of gyrA mutation, another E.coli strain NK 5819 which is also GyrA″ and nalidixic acid resistant was tested for arteether sensitivity. As expected, strain NK5819 was also sensitive only to a-isomer of arteether. […] The assays for arteether sensitivity was performed by the standard single disk diffusion method (Bauer et al, 1966). As a next step, we isolated gyrA mutants of E.coli strain CA 8000, which is otherwise Gyr+ and nalidixic acid sensitive. The gyrA mutants of CA8000 were isolated as nalidixic acid resistant colonies (20 ug/ml), after mutagenic treatment with NTG ([…]). The isolated CA8000 gyrA mutants were also sensitive only to a isomer of arteether. […] To define precisely the involvement of gyr genes only in the a-arteether sensitivity, we utilised two recombinant clones (pMK 90 and pMK47 containing functional gyr A and gyrB genes respectively) in trans-complementation assays. For this purpose, we mobilized the plasmid clones into the E.coli gyr mutant strains. The resulting transformants were now nalidixic acid sensitive and a-arteether resistant. This constituted the direct evidence supporting our observation that DNA gyrase enzyme alone is involved in conferring a-arteether sensitivity to E.coli strain. […] DNA gyrase enzyme is essential for the bacterial growth. This enzyme transiently breaks the DNA strands and introduces negative superhelical turns in an ATP-dependent process. The E.coli DNA gyrase enzyme is a tetramer with two subunits A and B. These two subunits are nalidixic acid and coumermycin sensitive respectively (U.S. Pat. No. 6,127,405 and a co-pending patent).
as §3

E. coli ET8000 [9] = assay: Phenotype of strain (resistance or sensitivity); type: cell-based, Escherichia coli; parameters: key: R: resistance; S: sensitivity; conditions: gyrA GAC-AAC(259), Asp-Asn 87
Text: as §3

E. coli NK5819 [10] = assay: Phenotype of strain (resistance or sensitivity); type: cell-based, Escherichia coli; parameters: key to Phenotype: R: resistance; S: sensitivity
Procedure: as §5, §3

E. coli CA8001 = assay: Phenotype of strain (resistance or sensitivity); type: cell-based, Escherichia coli; parameters: key: R: resistance; S: sensitivity; conditions: gyrA GGT-TGT(241), Gly-Cys 81
Text: as §2, §3

E. coli CA8002 = assay: Phenotype of strain (resistance or sensitivity); type: cell-based, Escherichia coli; parameters: key: R: resistance; S: sensitivity; conditions: gyrA GGT-TGT(241), Gly-Cys 81
Text: as §2, §3

E. coli CA8003 = assay: Phenotype of strain (resistance or sensitivity); type: cell-based, Escherichia coli; parameters: key: R: resistance; S: sensitivity; conditions: gyrA GAC-GGC(260), Asp-Gly 87
Text: as §2, §3

E. coli CA8005 = assay: Phenotype of strain (resistance or sensitivity); type: cell-based, Escherichia coli; parameters: key: R: resistance; S: sensitivity; conditions: gyrA GAC-GGC(260), Asp-Gly 87
Text: as §2, §3

E. coli CA8006 = assay: Phenotype of strain (resistance or sensitivity); type: cell-based, Escherichia coli; parameters: key: R: resistance; S: sensitivity; conditions: gyrA TCG-TTG(248), Ser-Leu 83
Text: as §2, §3

E. coli CA8007 = assay: Phenotype of strain (resistance or sensitivity); type: cell-based, Escherichia coli; parameters: key: R: resistance; S: sensitivity; conditions: gyrA TCG-TTG(248), Ser-Leu 83
Text: as §2, §3

E. coli CA8009 = assay: Phenotype of strain (resistance or sensitivity); type: cell-based, Escherichia coli; parameters: key: R: resistance; S: sensitivity; conditions: gyrA TCG-TTG(248), Ser-Leu 83
Text: as §2, §3

E. coli CA8010 = assay: Phenotype of strain (resistance or sensitivity); type: cell-based, Escherichia coli; parameters: key: R: resistance; S: sensitivity; conditions: gyrA TCG-TTG(248), Ser-Leu 83
Text: as §2, §3

[11] = system: E. coli mutant strain AR 9 CA8014; assay: Phenotype of revertant (resistance or sensitivity); type: cell-based, Escherichia coli; parameters: key: R: resistance; S: sensitivity; conditions: gyrA AAC-GAC(259), Asn-Asp 87
Text: as §3, §4

[12] = system: E.coli strain CA 8000 (Gyr+); assay: Phenotype of strain (resistance or sensitivity); type: cell-based, Escherichia coli; conditions: E.coli CA 8000 (Gyr+)
Procedure: as §5, with “This enzyme transiently breaks the DNA strands and introduces negative superhelical turns in an ATP-dependent process. The E.coli DNA gyrase enzyme is a tetramer with two subunits A and B. These two subunits are nalidixic acid and coumermycin sensitive respectively (U.S. Pat. No. 6,127,405 and a co-pending patent).” left out

[13] = system: E.coli gyr mutant strains transformed with pMK 90 and pMK47 (functional gyr A and gyrB genes); assay: Trans-complementation assay; type: cell-based, Escherichia coli; conditions: gyr mutant strains carrying pMK 90 / pMK47
Procedure: as §5, with “This enzyme transiently breaks the DNA strands and introduces negative superhelical turns in an ATP-dependent process. The E.coli DNA gyrase enzyme is a tetramer with two subunits A and B. These two subunits are nalidixic acid and coumermycin sensitive respectively (U.S. Pat. No. 6,127,405 and a co-pending patent).” left out

SMILES | MIC (E. coli CA8000) | MIC (E. coli DH5a) | MIC (E. coli ET8000 [1]) | MIC (E. coli NK5819 [2]) | MIC (E. coli mutant CA80010) | MIC (E. coli mutant CA80012) | MIC (E. coli mutant CA8001) | MIC (E. coli mutant CA8002) | MIC (E. coli mutant CA8003) | MIC (E. coli mutant CA8005) | MIC (E. coli mutant CA8006) | MIC (E. coli mutant CA8007) | MIC (E. coli mutant CA8009) | other results
O=C(O)c1cn(C2CC2)c2cc(N3CCNCC3)c(F)cc2c1=O [Ciprofloxacin] | < 0.05 µg/mL | 0.1 µg/mL (≈ 0.302 µM) | 0.5 µg/mL (≈ 1.51 µM) | < 0.1 µg/mL | 0.1 µg/mL (≈ 0.302 µM) | 0.1 µg/mL (≈ 0.302 µM) | < 0.1 µg/mL | < 0.1 µg/mL | < 0.1 µg/mL | 0.1 µg/mL (≈ 0.302 µM) | 0.1 µg/mL (≈ 0.302 µM) | 0.1 µg/mL (≈ 0.302 µM) | 0.1 µg/mL (≈ 0.302 µM) | 
CCn1cc(C(=O)O)c(=O)c2cc(F)c(N3CCNC(C)C3)c(F)c21 (centres unmarked) [Lomefloxacin] | < 0.05 µg/mL | 0.5 µg/mL (≈ 1.42 µM) | > 2 µg/mL | < 0.5 µg/mL | 1.5 µg/mL (≈ 4.27 µM) | 1.5 µg/mL (≈ 4.27 µM) | 1.5 µg/mL (≈ 4.27 µM) | 1.5 µg/mL (≈ 4.27 µM) | 2.5 µg/mL (≈ 7.12 µM) | 0.5 µg/mL (≈ 1.42 µM) | 1.5 µg/mL (≈ 4.27 µM) | 1.5 µg/mL (≈ 4.27 µM) | 1.5 µg/mL (≈ 4.27 µM) | Phenotype (E. coli CA8012): R; Phenotype [3]: S; Phenotype [4]: S; Phenotype [5]: S; Phenotype [6]: S; Phenotype [7]: S; Phenotype [8]: S
CCn1cc(C(=O)O)c(=O)c2ccc(C)nc21 [Nalidixic acid] | 2 µg/mL (≈ 8.61 µM) | 50 µg/mL (≈ 215 µM) | 100 µg/mL (≈ 431 µM) | 20 µg/mL (≈ 86.1 µM) | 100 µg/mL (≈ 431 µM) | 100 µg/mL (≈ 431 µM) | 150 µg/mL (≈ 646 µM) | 150 µg/mL (≈ 646 µM) | 150 µg/mL (≈ 646 µM) | 150 µg/mL (≈ 646 µM) | 150 µg/mL (≈ 646 µM) | 100 µg/mL (≈ 431 µM) | 100 µg/mL (≈ 431 µM) | Phenotype (E. coli DH5α; DH5α, gyrA GAC-AAC(259), Asp-Asn 87): R; Sensitivity or resistance of the strain (words) (E. coli DH5α; E.coli DH5a (gyrA 96; Asp87Asn)): resistant; Phenotype (E. coli ET8000 [9]): R; Sensitivity or resistance of the strain (words) (E. coli NK5819 [10]; E.coli NK 5819 (GyrA mutant)): resistant; Phenotype (E. coli NK5819 [10]; NK5819, gyrA GAC-TAC(259), Asp-Gly 87): R; Phenotype (E. coli CA8001): R; Phenotype (E. coli CA8002): R; Phenotype (E. coli CA8003): R; Phenotype (E. coli CA8005): R; Phenotype (E. coli CA8006): R; Phenotype (E. coli CA8007): R; Phenotype (E. coli CA8009): R; Phenotype (E. coli CA8010): R; Phenotype [11]: S; Sensitivity or resistance of the strain (words) [12]: sensitive; Sensitivity or resistance of transformants [13]: sensitive
